{"source": "patent US8101170B2", "about": "“Probiotic health or fitness promoting human or animal foodstuff and/or drinking water additive and use thereof” (Erber Aktiengesellschaft, priority 2005, dated 2012)", "assay_type_in_all_cases": "cell-based", "key": {"Salmonella choleraesuis": {"tested_on": "Salmonella choleraesuis", "test": "Agar plate assay, inhibition of pathogenic germs by CE test germs"}, "Clostridium perfringens": {"tested_on": "Clostridium perfringens"}, "Campylobacter jejuni": {"tested_on": "Campylobacter jejuni", "test": "Agar plate assay, inhibition of pathogenic germs by CE test germs"}, "E. coli": {"tested_on": "E. coli", "test": "Agar plate assay, inhibition of pathogenic germs by CE test germs"}}, "note": "Where “and” joins values, the source holds several entries; their conditions need not be identical. Equal entries are not always repeated. Where two headings read alike, the source gives them in different places.", "data": [{"substance": "Bifidobacterium animalis [DSM 20104]", "values": [{"measurement": "inhibition zone to test germ ratio, Salmonella choleraesuis", "setting": "Salmonella choleraesuis; MRS agar", "result": 0.65}, {"measurement": "inhibition zone to test germ ratio, Clostridium perfringens", "setting": "Clostridium perfringens", "result": 1.42}, {"measurement": "inhibition zone to test germ ratio, Campylobacter jejuni", "setting": "Campylobacter jejuni; MRS agar", "result": 0.31}]}, {"substance": "Enterococcus faecium [DSM 16211]", "values": [{"measurement": "inhibition zone to test germ ratio, Salmonella choleraesuis", "setting": "Salmonella choleraesuis; MRS agar", "result": 1.37}, {"measurement": "inhibition zone to test germ ratio, Clostridium perfringens", "setting": "Clostridium perfringens", "result": 1.43}, {"measurement": "inhibition zone to test germ ratio, Campylobacter jejuni", "setting": "Campylobacter jejuni; MRS agar", "result": 1.28}]}, {"substance": "Enterococcus faecium [NCIMB 10415]", "values": [{"measurement": "inhibition zone to test germ ratio, Salmonella choleraesuis", "setting": "Salmonella choleraesuis", "result": 1.20}, {"measurement": "inhibition zone to test germ ratio, E. coli", "setting": "E. coli", "result": "1.37 and 1.35"}, {"measurement": "inhibition zone to test germ ratio, Clostridium perfringens", "setting": "Clostridium perfringens", "result": 1.31}, {"measurement": "inhibition zone to test germ ratio, Campylobacter jejuni", "setting": "Campylobacter jejuni", "result": 1.22}]}, {"substance": "Lactobacillus reuteri [DSM 16350]", "values": [{"measurement": "inhibition zone to test germ ratio, Salmonella choleraesuis", "setting": "Salmonella choleraesuis; MRS agar", "result": 1.60}, {"measurement": "inhibition zone to test germ ratio, Clostridium perfringens", "setting": "Clostridium perfringens", "result": 2.12}, {"measurement": "inhibition zone to test germ ratio, Campylobacter jejuni", "setting": "Campylobacter jejuni; MRS agar", "result": 1.36}]}, {"substance": "Lactobacillus reuteri [DSM 20016]", "values": [{"measurement": "inhibition zone to test germ ratio, Salmonella choleraesuis", "setting": "Salmonella choleraesuis; MRS agar", "result": 1.20}, {"measurement": "inhibition zone to test germ ratio, Clostridium perfringens", "setting": "Clostridium perfringens", "result": 1.54}, {"measurement": "inhibition zone to test germ ratio, Campylobacter jejuni", "setting": "Campylobacter jejuni; MRS agar", "result": 1.35}]}, {"substance": "Lactobacillus salivarius [DSM 20555]", "values": [{"measurement": "inhibition zone to test germ ratio, Salmonella choleraesuis", "setting": "Salmonella choleraesuis; MRS agar", "result": 1.09}, {"measurement": "inhibition zone to test germ ratio, Clostridium perfringens", "setting": "Clostridium perfringens", "result": 1.63}, {"measurement": "inhibition zone to test germ ratio, Campylobacter jejuni", "setting": "Campylobacter jejuni; MRS agar", "result": 1.41}]}, {"substance": "Lactobacillus salivarius ssp. salivarius [DSM 16351]", "values": [{"measurement": "inhibition zone to test germ ratio, Salmonella choleraesuis", "setting": "Salmonella choleraesuis; MRS agar", "result": 1.46}, {"measurement": "inhibition zone to test germ ratio, Clostridium perfringens", "setting": "Clostridium perfringens", "result": 2.05}, {"measurement": "inhibition zone to test germ ratio, Campylobacter jejuni", "setting": "Campylobacter jejuni; MRS agar", "result": 1.50}]}, {"substance": "Pediococcus acidilactici [DSM 20284]", "values": [{"measurement": "inhibition zone to test germ ratio, Salmonella choleraesuis", "setting": "Salmonella choleraesuis; MRS agar", "result": 1.10}, {"measurement": "inhibition zone to test germ ratio, Clostridium perfringens", "setting": "Clostridium perfringens", "result": 1.35}, {"measurement": "inhibition zone to test germ ratio, Campylobacter jejuni", "setting": "Campylobacter jejuni; MRS agar", "result": 1.32}]}]}
